Data published in EP0013144A1, “Substituted diphenylamine derivatives, compositions and herbicidal uses thereof, and processes for their preparation” (ICI AUSTRALIA LIMITED, priority 1978, dated 1980).

Experiments:
Type in all cases: in vivo
Mustard = assay: Pre-emergence herbicidal activity (Example 31); details: after three weeks
Procedure, shortened: (§1)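 Visual damage score at three weeks: 0 = 0–25% damage, 3 = 75–99% kill, 3+ = 100% kill. Soil boxes with seeds sown 2 cm deep were sprayed before emergence with water-diluted emulsifiable concentrate or suspension, then grown in a glasshouse alongside unsprayed controls.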

Japanese millet = assay: Pre-emergence herbicidal activity (Example 31); details: after three weeks
Procedure, shortened: as §1

Ipomea = assay: Pre-emergence herbicidal activity (Example 31); details: after three weeks
Procedure, shortened: as §1

Sunflower [1] = assay: Pre-emergence herbicidal activity (Example 31); details: after three weeks
Procedure, shortened: as §1

Sunflower [2] = assay: Post-emergence herbicidal activity (Example 32); details: 3 weeks after spraying
Procedure, shortened: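 Herbicidal effect is expressed as a visual 0–3 injury score relative to untreated controls, read 3 weeks after foliar application to glasshouse seedlings about 10 to 12.5 cm tall. Test compositions are water-diluted surfactant-based concentrates or suspensions.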

Maize [3] = assay: Post-emergence herbicidal test, young pot plants (Example 33); parameters: key: 0 is 0 to 20% damage; 5 is complete kill; details: 2.0 kg/ha, after 14 days
Procedure, shortened: (§2)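 Damage scored 0–5 versus untreated controls (0 = 0–20% damage, 5 = complete kill): 14 d for sprayed young pot plants, 21 d for seeds sown in fibre trays, sprayed on the levelled soil surface, then covered thinly with soil. Spray: aqueous dilution of a Span 80/Tween 20/methylcyclohexanone emulsion.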

Rice = assay: as above; parameters: key: 0 is 0 to 20% damage; 5 is complete kill; details: 2.0 kg/ha, after 14 days
Procedure, shortened: as §2

Maize [4] = assay: Pre-emergence herbicidal test, fibre trays (Example 33); parameters: key: 0 = 0-20% damage, 5 = complete kill, vs untreated control; details: 2.0 kg/ha, after 21 days
Procedure, shortened: as §2

Ryegrass = assay: Pre-emergence herbicidal activity (Example 31); parameters: key: 0-3 scale: 0 = 0-25% damage, 3 = 75-99% kill, 3+ = 100% kill; details: after three weeks
Procedure, shortened: as §1

Rape = assay: Pre-emergence herbicidal test, fibre trays (Example 33); details: 2.0 kg/ha, after 21 days
Procedure, shortened: as §2

Soy bean [5] = assay: as above; details: 2.0 kg/ha, after 21 days
Procedure, shortened: as §2

Winter wheat = assay: as above; details: 2.0 kg/ha, after 21 days
Procedure, shortened: as §2

Ipomea purpurea [6] = assay: as above; details: 2.0 kg/ha, after 21 days
Procedure, shortened: as §2

Sugar beet [7] = assay: as above; details: 2.0 kg/ha, after 21 days
Procedure, shortened: as §2

Senecio vulgaris = assay: as above; details: 2.0 kg/ha, after 21 days
Procedure, shortened: as §2

Cotton [8] = assay: as above; details: 2.0 kg/ha, after 21 days
Procedure, shortened: as §2

Soy bean [9] = assay: Post-emergence herbicidal test, young pot plants (Example 33); details: 2.0 kg/ha, after 14 days
Procedure, shortened: as §2

Chenopodium album = assay: as above; details: 2.0 kg/ha, after 14 days
Procedure, shortened: as §2

Ipomea purpurea [10] = assay: as above; details: 2.0 kg/ha, after 14 days
Procedure, shortened: as §2

Sugar beet [11] = assay: as above; details: 2.0 kg/ha, after 14 days
Procedure, shortened: as §2

Cotton [12] = assay: as above; details: 2.0 kg/ha, after 14 days
Procedure, shortened: as §2

Amaranthus retroflexus = assay: as above; details: 2.0 kg/ha, after 14 days
Procedure, shortened: as §2

COC(=O)C(C)Oc1ccc(N(C)c2ccc(Br)cc2[N+](=O)[O-])cc1 (centres unmarked) [Compound 30]
damage to plants, Ms (Mustard; 1 kg/ha): 1
damage to plants, Ms (Mustard; 5 kg/ha): 2
damage to plants, Jm (Japanese millet; 1 kg/ha): 1
damage to plants, Jm (Japanese millet; 5 kg/ha): 3 (3 represents 75 to 99% kill)
damage to plants, Ip (Ipomea; 1 kg/ha): 0 (0 represents from 0 to 25% damage)
damage to plants, Ip (Ipomea; 5 kg/ha): 0 (0 represents from 0 to 25% damage)
damage to plants, Sf (Sunflower [1]; 1 kg/ha): 0 (0 represents from 0 to 25% damage)
damage to plants, Sf (Sunflower [1]; 5 kg/ha): 0 (0 represents from 0 to 25% damage)
damage to plants, Sf (Sunflower [2]; 1 kg/ha): 0 (0 represents 0 to 25% damage)
damage to plants, Sf (Sunflower [2]; 5 kg/ha): 0 (0 represents 0 to 25% damage)
damage to test plants, Mz (Maize [3]): 5
damage to test plants, Rc (Rice): 4
herbicidal damage, Mz (Maize [4]): 2
damage to plants, Rg (Ryegrass; 1 kg/ha): 1
damage to plants, Rg (Ryegrass; 5 kg/ha): 3+ (3+ represents 100% kill)
herbicidal damage, Rp (Rape): 0 (0 is 0 to 20% damage)
herbicidal damage, Sy (Soy bean [5]): 0 (0 is 0 to 20% damage)
herbicidal damage, Ww (Winter wheat): 1
herbicidal damage, Ip (Ipomea purpurea [6]): 0 (0 is 0 to 20% damage)
herbicidal damage, Sb (Sugar beet [7]): 0 (0 is 0 to 20% damage)
herbicidal damage, Sn (Senecio vulgaris): 2
herbicidal damage, Ct (Cotton [8]): 0 (0 is 0 to 20% damage)
damage to test plants, Sy (Soy bean [9]): 2
damage to test plants, Ca (Chenopodium album): 0 (0 is 0 to 20% damage)
damage to test plants, Ip (Ipomea purpurea [10]): 0 (0 is 0 to 20% damage)
damage to test plants, Sb (Sugar beet [11]): 0 (0 is 0 to 20% damage)
damage to test plants, Ct (Cotton [12]): 0 (0 is 0 to 20% damage)
damage to test plants, Am (Amaranthus retroflexus): 0 (0 is 0 to 20% damage)

C#CCN(c1ccc(OC(C)C(=O)OC)cc1)c1ccc(C(F)(F)F)cc1[N+](=O)[O-] (centres unmarked) [Compound 81]
damage to plants, Ms (Mustard; 1 kg/ha): 0 (0 represents from 0 to 25% damage)
damage to plants, Ms (Mustard; 5 kg/ha): 0 (0 represents from 0 to 25% damage)
damage to plants, Jm (Japanese millet; 1 kg/ha): 3+ (3+ represents 100% kill)
damage to plants, Jm (Japanese millet; 5 kg/ha): 3+ (3+ represents 100% kill)
damage to plants, Ip (Ipomea; 1 kg/ha): 0 (0 represents from 0 to 25% damage)
damage to plants, Ip (Ipomea; 5 kg/ha): 0 (0 represents from 0 to 25% damage)
damage to plants, Sf (Sunflower [1]; 1 kg/ha): 0 (0 represents from 0 to 25% damage)
damage to plants, Sf (Sunflower [1]; 5 kg/ha): 0 (0 represents from 0 to 25% damage)
damage to plants, Sf (Sunflower [2]; 1 kg/ha): 0 (0 represents 0 to 25% damage)
damage to plants, Sf (Sunflower [2]; 5 kg/ha): 0 (0 represents 0 to 25% damage)
damage to test plants, Mz (Maize [3]): 4
damage to test plants, Rc (Rice): 4
herbicidal damage, Mz (Maize [4]): 3
damage to plants, Rg (Ryegrass; 1 kg/ha): 3 (3 represents 75 to 99% kill)
damage to plants, Rg (Ryegrass; 5 kg/ha): 3+ (3+ represents 100% kill)
herbicidal damage, Rp (Rape): 0 (0 is 0 to 20% damage)
herbicidal damage, Sy (Soy bean [5]): 0 (0 is 0 to 20% damage)
herbicidal damage, Ww (Winter wheat): 4
herbicidal damage, Ip (Ipomea purpurea [6]): 0 (0 is 0 to 20% damage)
herbicidal damage, Sb (Sugar beet [7]): 0 (0 is 0 to 20% damage)
herbicidal damage, Sn (Senecio vulgaris): 0 (0 is 0 to 20% damage)
herbicidal damage, Ct (Cotton [8]): 0 (0 is 0 to 20% damage)
damage to test plants, Sy (Soy bean [9]): 0 (0 is 0 to 20% damage)
damage to test plants, Ca (Chenopodium album): 0 (0 is 0 to 20% damage)
damage to test plants, Ip (Ipomea purpurea [10]): 0 (0 is 0 to 20% damage)
damage to test plants, Sb (Sugar beet [11]): 3
damage to test plants, Ct (Cotton [12]): 0 (0 is 0 to 20% damage)
damage to test plants, Am (Amaranthus retroflexus): 0 (0 is 0 to 20% damage)
